Data on one molecule can be found in article PMC9323625, “Structure–Function Insights into the Fungal Endo-Chitinase Chit33 Depict its Mechanism on Chitinous Material” (International Journal of Molecular Sciences, 2022).

For this test, the target named is T1, Chit33 (Trichoderma harzianum, UniProt Q12713, D165A/E167A).
T1 construct: gene chit33 (909 bp, 321 amino acids) expressed in Pichia pastoris GS115 from CHIT33-pIB4, secreted to the extracellular fraction; 33 kDa
T1 sequence (Q12713 20-321 D165A/E167A): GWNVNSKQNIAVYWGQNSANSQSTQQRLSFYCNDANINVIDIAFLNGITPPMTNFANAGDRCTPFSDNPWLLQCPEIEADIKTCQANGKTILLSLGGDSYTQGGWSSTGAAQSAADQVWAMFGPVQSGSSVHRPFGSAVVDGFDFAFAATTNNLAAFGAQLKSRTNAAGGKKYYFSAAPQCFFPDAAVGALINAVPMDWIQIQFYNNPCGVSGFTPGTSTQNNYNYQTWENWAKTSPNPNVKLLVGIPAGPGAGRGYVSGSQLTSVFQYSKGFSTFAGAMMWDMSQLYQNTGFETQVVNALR
The experiment in a line: X-ray crystal structure, […] Å. The class given is binding. The note with it: crystal soaked with 18 mM NAG4 for 30 min; active site, subsites −2 to +2; inactivated double mutant.

Structures are written as SMILES.

`CC(=O)N[C@H]1[C@H](O[C@H]2[C@H](O)[C@@H](NC(C)=O)C(O)O[C@@H]2CO)O[C@H](CO)[C@@H](O[C@@H]2O[C@H](CO)[C@@H](O[C@@H]3O[C@H](CO)[C@@H](O)[C@H](O)[C@H]3NC(C)=O)[C@H](O)[C@H]2NC(C)=O)[C@@H]1O` (stereo partly shown) [NAG4, N,N’,N’’,N’’’-acetyl chitotetraose]: the “X-ray crystal structure, 1.60 Å” value was “we determined the crystal structure of the inactive double-mutant D165A/E167A with the substrate NAG4”.
